Laboratory results as given in US12325697B2 (Nimbus Clio, Inc., priority 2021, dated 2025).

Legend:
[1] = molecular target: Recombinant human Cbl-b (aa 36-427) (Homo sapiens (Human), UniProt Q13191); experiment: Cbl-b Biochemical Assay (TR-FRET); conditions: read-out: TR-FRET hCbl-b IC50
Procedure, shortened: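 Two-step TR-FRET: 6 nM biotinylated Cbl-b preincubated 30-60 min with compound, then 60 min at RT with 1-2.5 nM Src-Zap70 and 0.5 mM ATP in HEPES pH 7.0 buffer, 1% DMSO. Stopped with 5 mM EDTA plus 100 nM UBE2D2-Ub-FL-BODIPY and 1 nM streptavidin-Tb, 60 min; 520 nm signal; IC50 from 4-parameter fit.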

[2] = molecular target: Recombinant human c-Cbl (aa 47-435) (Homo sapiens (Human), UniProt P22681); experiment: c-Cbl Biochemical Assay (TR-FRET)
Procedure, shortened: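 Biotinylated c-Cbl (6 nM) preincubated 30 min RT with compound, then reacted 60-90 min with Src-Zap70 (2.5-10 nM) and 0.5 mM ATP, pH 7.0 HEPES buffer. Stopped with EDTA; 100 nM Bodipy-ubiquitinated UBE2D2 binding read by TR-FRET after 60 min; IC50 from 4-parameter fit.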

Chain of Recombinant human c-Cbl (aa 47-435) (P22681 47-435): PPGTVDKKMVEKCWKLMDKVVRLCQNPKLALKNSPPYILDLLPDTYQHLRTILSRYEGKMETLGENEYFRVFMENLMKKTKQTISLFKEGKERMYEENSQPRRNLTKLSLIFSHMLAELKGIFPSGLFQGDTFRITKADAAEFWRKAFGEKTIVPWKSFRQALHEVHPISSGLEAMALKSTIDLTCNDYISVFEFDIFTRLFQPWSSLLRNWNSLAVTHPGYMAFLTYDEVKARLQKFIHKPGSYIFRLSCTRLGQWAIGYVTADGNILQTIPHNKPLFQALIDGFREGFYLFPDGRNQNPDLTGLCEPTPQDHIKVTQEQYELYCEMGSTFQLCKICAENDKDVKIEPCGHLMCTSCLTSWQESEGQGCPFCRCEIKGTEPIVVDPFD
Chain of Recombinant human Cbl-b (aa 36-427) (Q13191 36-427): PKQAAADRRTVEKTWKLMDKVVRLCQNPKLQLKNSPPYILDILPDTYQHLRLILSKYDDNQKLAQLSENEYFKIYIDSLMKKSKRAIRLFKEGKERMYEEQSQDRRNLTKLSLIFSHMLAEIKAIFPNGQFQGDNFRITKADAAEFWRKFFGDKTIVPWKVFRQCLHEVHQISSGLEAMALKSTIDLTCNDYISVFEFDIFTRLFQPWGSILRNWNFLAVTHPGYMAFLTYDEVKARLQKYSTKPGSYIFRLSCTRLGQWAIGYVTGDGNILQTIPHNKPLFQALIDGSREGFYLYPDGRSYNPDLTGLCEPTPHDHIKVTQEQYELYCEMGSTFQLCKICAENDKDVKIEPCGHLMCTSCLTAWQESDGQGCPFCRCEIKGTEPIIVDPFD

SMILES | IC50 [1] | IC50 [2]
COc1cc(COCC2(O)CCC2)cc2c1CN(c1cc(-c3ccc(F)cc3-c3nncn3C)cc(C3CC3)n1)C2=O [AIC-11, 2-{6-Cyclopropyl-4-[4-fluoro-2-(4-methyl-1,2,4-triazol-3-yl)phenyl]pyridin-2-yl}-6-{[(1-hydroxycyclobutyl)methoxy]methyl}-4-methoxy-3H-isoindol-1-one] | ≤ 200 nM | ≤ 200 nM
CCC1(NCc2cc3c(c(C(F)(F)F)c2)CN(c2cc(-c4ccc(C#N)cc4-c4nncn4C)cc(C4CC4)n2)C3=O)CC1 [AKU-2, 4-[2-Cyclopropyl-6-(6-{1[(1-ethylcyclopropyl)amino]methyl}-1-oxo-4-(trifluoromethyl)-3H-isoindol-2-yl)pyridin-4-yl]-3-(4-methyl-1,2,4-triazol-3-yl)benzonitrile] | ≤ 200 nM | ≤ 200 nM
C#CCOc1ccc(-c2cc(NCC)nc(N3Cc4c(cccc4C(F)(F)F)C3=O)c2)c(-c2nncn2C)c1 [AHU-12, 2-[6-(Ethylamino)-4-[2-(4-methyl-1,2,4-triazol-3-yl)-4-(prop-2-yn-1-yloxy)phenyl]pyridin-2-yl]-4-(trifluoromethyl)-3H-isoindol-1-one] | ≤ 200 nM | 200 to 1000 nM
C[C@H]1CCCN(Cc2ccc3c(c2)C(=O)N(c2cc(-c4ccc(C#N)cc4-c4nncn4C)cc(C4CC4)n2)C3)C1 [ALS-1, 4-[2-Cyclopropyl-6-(6-{[(3S)-3-methylpiperidin-1-yl]methyl}-1-oxo-3H-isoindol-2-yl)pyridin-4-yl]-3-(4-methyl-1,2,4-triazol-3-yl)benzonitrile] | ≤ 200 nM | ≤ 200 nM
Cn1cnnc1-c1cc(C#N)ccc1-c1cc(C2CC2)nc(N2Cc3c(F)cc(CNCC4COC4)cc3C2=O)c1 [ANB-1, 4-[2-Cyclopropyl-6-(4-fluoro-6-{[(oxetan-3-ylmethyl)amino]methyl}-1-oxo-3H-isoindol-2-yl)pyridin-4-yl]-3-(4-methyl-1,2,4-triazol-3-yl)benzonitrile] | ≤ 200 nM | ≤ 200 nM
Cn1cnnc1-c1cc(C#N)ccc1-c1cc(C2CC2)nc(N2Cc3c(F)cc(CNCC4(C)CCC4)cc3C2=O)c1 [ALO-2, 4-{2-Cyclopropyl-6-[4-fluoro-6-({[(1-methylcyclobutyl)methyl]amino}methyl)-1-oxo-3H-isoindol-2-yl]pyridin-4-yl}-3-(4-methyl-1,2,4-triazol-3-yl)benzonitrile] | ≤ 200 nM | ≤ 200 nM
Cn1cnnc1-c1cc(C#N)ccc1-c1cc(C2CC2)nc(N2Cc3cc(Cl)c(CNCC4CCCC4)cc3C2=O)c1 [AKO-2, 4-(2-(5-Chloro-6-(((cyclopentylmethyl)amino)methyl)-1-oxoisoindolin-2-yl)-6-cyclopropylpyridin-4-yl)-3-(4-methyl-4H-1,2,4-triazol-3-yl)benzonitrile] | ≤ 200 nM | ≤ 200 nM
C[C@H](NCc1ccc2c(c1)C(=O)N(c1cc(-c3ccc(C#N)cc3-c3nncn3C)cc(C3CC3)n1)C2)C1COC1 [ANK-2, (S)-4-(2-Cyclopropyl-6-(6-(((1-(oxetan-3-yl)ethyl)amino)methyl)-1-oxoisoindolin-2-yl)pyridin-4-yl)-3-(4-methyl-4H-1,2,4-triazol-3-yl)benzonitrile] | ≤ 200 nM | ≤ 200 nM
CN(Cc1cc(F)c2c(c1)C(=O)N(c1cc(-c3ccc(C#N)cc3-c3nncn3C)cc(C3CC3)n1)C2)CC1(O)CCC1 [AMW-2, 4-{2-Cyclopropyl-6-[4-fluoro-6-({[(1-hydroxycyclobutyl)methyl](methyl)amino}methyl)-1-oxo-3H-isoindol-2-yl]pyridin-4-yl}-3-(4-methyl-1,2,4-triazol-3-yl)benzonitrile] | ≤ 200 nM | ≤ 200 nM
Cn1cnnc1-c1cc(C#N)ccc1-c1cc(C2CC2)nc(N2Cc3c(F)cc(CNCCC(F)F)cc3C2=O)c1 [AME-2, 4-[2-Cyclopropyl-6-(6-{[(3,3-difluoropropyl)amino]methyl}-4-fluoro-1-oxo-3H-isoindol-2-yl)pyridin-4-yl]-3-(4-methyl-1,2,4-triazol-3-yl)benzonitrile] | ≤ 200 nM | ≤ 200 nM
CN(Cc1ccc2c(c1)C(=O)N(c1cc(-c3ccc(C#N)cc3-c3nncn3C)cc(C3CC3)n1)C2)CC1CCCC1 [AJY-1, 4-[2-(6-{1[(Cyclopentylmethyl)(methyl)amino]methyl}-1-oxo-3H-isoindol-2-yl)-6-cyclopropylpyridin-4-yl]-3-(4-methyl-1,2,4-triazol-3-yl)benzonitrile] | ≤ 200 nM | ≤ 200 nM
Cn1cnnc1-c1cc(C#N)ccc1-c1cc(C2CC2)nc(N2Cc3ccc(CNC[C@@H]4CCOC4)cc3C2=O)c1 [ANY-2, 4-{2-Cyclopropyl-6-[1-oxo-6-({[(3S)-oxolan-3-ylmethyl]amino}methyl)-3H-isoindol-2-yl]pyridin-4-yl}-3-(4-methyl-1,2,4-triazol-3-yl)benzonitrile] | ≤ 200 nM | ≤ 200 nM
CO[C@@H](C)CNCc1ccc2c(c1)C(=O)N(c1cc(-c3ccc(C#N)cc3-c3nncn3C)cc(C3CC3)n1)C2 [AIM-2, 4-{2-cyclopropyl-6-[6-({[(2S)-2-methoxypropyl]amino}methyl)-1-oxo-3H-isoindol-2-yl]pyridin-4-yl}-3-(4-methyl-1,2,4-triazol-3-yl) benzonitrile] | ≤ 200 nM | ≤ 200 nM
Cn1cnnc1-c1cc(C#N)ccc1-c1cc(C2CC2)nc(N2Cc3ccc(COCC4CCCC4)cc3C2=O)c1 [AIS-2, 4-(2-{6-[(cyclopentylmethoxy)methyl]-1-oxo-3H-isoindol-2-yl}-6-cyclopropylpyridin-4-yl)-3-(4-methyl-1,2,4-triazol-3-yl)benzonitrile] | ≤ 200 nM | ≤ 200 nM
COCC1(NCc2ccc3c(c2)C(=O)N(c2cc(-c4ccc(C#N)cc4-c4nncn4C)cc(C4CC4)n2)C3)CC1 [ALT-2, 4-{2-Cyclopropyl-6-[6-({[1-(methoxymethyl)cyclopropyl]amino}methyl)-1-oxo-3H-isoindol-2-yl]pyridin-4-yl}-3-(4-methyl-1,2,4-triazol-3-yl)benzonitrile] | ≤ 200 nM | ≤ 200 nM
COc1cc2c(cc1CNCC1CCC1)C(=O)N(c1cc(-c3ccc(C#N)cc3-c3nncn3C)cc(C3CC3)n1)C2 [AKM-2, 4-[2-(6-{[(Cyclobutylmethyl)amino]methyl}-5-methoxy-1-oxo-3H-isoindol-2-yl)-6-cyclopropylpyridin-4-yl]-3-(4-methyl-1,2,4-triazol-3-yl)benzonitrile] | 1000 to 10000 nM | 1000 to 10000 nM
Cn1cnnc1-c1cc(C#N)ccc1-c1cc(C2CC2)nc(N2Cc3c(F)cc(CN[C@@H]4COC[C@@H]4O)cc3C2=O)c1 [ALI-2, 4-{2-Cyclopropyl-6-[4-fluoro-6-({[(3R,4R)-4-hydroxyoxolan-3-yl]amino}methyl)-1-oxo-3H-isoindol-2-yl]pyridin-4-yl}-3-(4-methyl-1,2,4-triazol-3-yl)benzonitrile] | ≤ 200 nM | ≤ 200 nM
Cn1cnnc1-c1cc(C#N)ccc1-c1cc(C2CC2)nc(N2Cc3ccc(CN4CC5CC5C4)cc3C2=O)c1 (stereo not drawn) [ANA-1, 4-[2-(6-{3-Azabicyclo[3.1.0]hexan-3-ylmethyl}-1-oxo-3H-isoindol-2-yl)-6-cyclopropylpyridin-4-yl]-3-(4-methyl-1,2,4-triazol-3-yl)benzonitrile] | ≤ 200 nM | ≤ 200 nM
Cn1cnnc1-c1cc(C#N)ccc1-c1cc(C2CC2)nc(N2Cc3c(F)cc(CNCC4CC4)cc3C2=O)c1 [AMC-2, 4-[2-Cyclopropyl-6-(6-{[(cyclopropylmethyl)amino]methyl}-4-fluoro-1-oxo-3H-isoindol-2-yl)pyridin-4-yl]-3-(4-methyl-1,2,4-triazol-3-yl)benzonitrile] | ≤ 200 nM | ≤ 200 nM
COCCN(C)Cc1cc2c(c(F)c1F)CN(c1cc(-c3ccc(C#N)cc3-c3nncn3C)cc(C3CC3)n1)C2=O [AMZ-3, 4-[2-Cyclopropyl-6-(4,5-difluoro-6-{[(2-methoxyethyl)(methyl)amino]methyl}-1-oxo-3H-isoindol-2-yl)pyridin-4-yl]-3-(4-methyl-1,2,4-triazol-3-yl)benzonitrile] | ≤ 200 nM | ≤ 200 nM
CNC[C@@H](O)COc1ccc2c(c1)C(=O)N(c1cc(-c3ccc(C#N)cc3-c3nncn3C)cc(C3CC3)n1)C2 [AJV-3, 4-(2-Cyclopropyl-6-{6-[(2R)-2-hydroxy-3-(methylamino)propoxy]-1-oxo-3H-isoindol-2-yl}pyridin-4-yl)-3-(4-methyl-1,2,4-triazol-3-yl)benzonitrile] | ≤ 200 nM | ≤ 200 nM
Cn1cnnc1-c1cc(C#N)ccc1-c1cc(C2CC2)nc(N2Cc3c(F)cc(CN4CC[C@H]5OCC[C@H]54)cc3C2=O)c1 (stereo in doubt) [ANF-11, 4-[2-Cyclopropyl-6-(4-fluoro-6-{hexahydrofuro[3,2-b]pyrrol-4-ylmethyl}-1-oxo-3H-isoindol-2-yl)pyridin-4-yl]-3-(4-methyl-1,2,4-triazol-3-yl)benzonitrile] | ≤ 200 nM | ≤ 200 nM
Cn1cnnc1-c1cc(C#N)ccc1-c1cc(C2CC2)nc(N2Cc3c(cc(COCC4(O)CCC4)cc3C(F)(F)F)C2=O)c1 [AHP-1, 4-(2-Cyclopropyl-6-(6-(((1-hydroxycyclobutyl)methoxy)methyl)-1-oxo-4-(trifluoromethyl)isoindolin-2-yl)pyridin-4-yl)-3-(4-methyl-4H-1,2,4-triazol-3-yl)benzonitrile] | ≤ 200 nM | ≤ 200 nM
C[C@H](c1ccc2c(c1)C(=O)N(c1cc(-c3ccc(C#N)cc3-c3nncn3C)cc(C3CC3)n1)C2)N1CC2(COC2)C1 [AOE-1, 4-(2-Cyclopropyl-6-{6-[(1R)-1-{2-oxa-6-azaspiro[3.3]heptan-6-yl}ethyl]-1-oxo-3H-isoindol-2-yl}pyridin-4-yl)-3-(4-methyl-1,2,4-triazol-3-yl)benzonitrile] | ≤ 200 nM | ≤ 200 nM
